Experimental data reported in US20220373437A1, “SYSTEM FOR EVALUATING CHEMO-PREVENTIVE POTENTIAL OF PHC AND ITS PREPARED CHITOSAN NANOPARTICLES” (priority 2022, published 2022).

Key:
Type in all cases: in vivo, Wistar rats
[1] = tested on: DEN induced hepatocellular carcinoma; assay: Macroscopic hepatic nodule incidence in DEN + CCl4 induced HCC rats; details: DEN 200 mg/kg i.p. + weekly CCl4 s.c., 16 weeks, HCC control group 6-7 nodules, normal control none
Procedure: (§1) In an embodiment, an injection 106 is used for inducing Hepatocellular Carcinoma (HCC), wherein for the induction of HCC, rats administered single intraperitoneal injection of DEN (200 mg/kg body weight) followed by weekly subcutaneous injections of carbon tetrachloride (3 ml/kg body weight) for 6 weeks, wherein the rats are divided into eight groups, from which group 1 is served as normal control, and group 2-8 are given single dose of DEN and repeated dose of CCl4 till the completion of the experimental duration of 16 weeks, wherein freshly prepared solution of DEN in normal saline is used for the induction of HCC in rats by administering 200 mg/kg, i.p., PHC (2:1:1) is dispersed in normal saline suspension to administer at doses of 900 mg/kg, p.o and 1935 mg/kg p.o. Soranib (Sorafenib 200 mg) tablets are powdered and dissolve in normal saline solution and the freshly prepared solution is used as standard drug.
In another embodiment, all the rats are allowed to consume commercial pellet diet during the course of the study, wherein eight groups of rat are differentiated into six groups consisting of eight rats and two groups consisting of twelve rats.
In one embodiment, a refrigerator 124 is coupled to the treatment unit 110 for storing the tissues at −20° C. and observing the presence of nodules using the UV spectrophotometer 114. […]

[2] = tested on: DEN induced hepatocellular carcinoma; assay: Total bilirubin, total protein, albumin, globulin and A/G ratio in DEN + CCl4 induced HCC rats; details: ANOVA followed by Dunnett's t-test vs HCC group
Procedure: as §1
(§2) In an embodiment, a collection unit 108 is used for collecting serum and tissue samples after anesthetizing overnight fasted rats using intraperitoneal administration of thiopentone sodium at a dose of 40 mg/kg, wherein the blood sample is collected by retro-orbital plexus followed by cardiac puncture.
In another embodiment, the treatment unit 110 comprises a centrifuge 116 for centrifugating the collected sample of blood at 3000 rpm for 10 minutes to separate the serum, which is kept at −20° C. until further analysis.
In another embodiment, the live markers are selected from a group comprising Alanine Aminotransaminase (ALT)/Serum Glutamate Pyruvate Transaminase (SGPT), Aspartate Aminotransaminase (AST)/Serum Glutamate Oxaloacetate Transaminase (SGOT), Alkaline Phosphatase (ALP), Lactate dehydrogenase (LDH), total protein, albumin, globulin and total bilirubin.
FIG. 6 illustrates effect on total bilirubin, total protein, albumin and globulin in control and experimental groups in accordance with an embodiment of the present disclosure. All values are expressed as mean±Standard deviation (SD) (n=6) except n=5 in Plant ‘c’ group. Statistical analysis is done using One way Analysis of Variance (ANOVA) followed by Dunnett's t-test using GraphPad Prism Version 8.0.1. Where, HCC is compared with NC group while the treatment groups (Plant ‘a’, Plant ‘b’, Plant ‘c’, PHC (2:1:1), CNP-EL and STD) are compared with HCC group. ^#P<0.0001 is very highly significant when compared with NC, ^aP<0.0001 is very highly significant, ^bP<0.001 is highly significant, ^cP<0.01 is very significant, ^dP<0.05 is significant and ns=not significant when compared with HCC group. Where NC is normal control group; HCC is hepatocellular carcinoma group; Plant ‘a’ group is Berberis aristata treated group; Plant ‘b’ group is Andrographis paniculata treated group; Plant ‘c’ group is Thevetia peruviana treated group; PHC (2:1:1) group is Polyherbal combination of 2:1:1 treated group; CNP-EL group is Chitosan nanoparticles of PHC (2:1:1) treated group and STD group is Standard Sorafenib treated group. Unit: Bilirubin: mg/dl, Total protein, Albumin and globulin: gm/dl.

[3] = tested on: DEN induced hepatocellular carcinoma; assay: Lipid peroxidation (MDA) in liver tissue homogenates of DEN + CCl4 induced HCC rats; details: vs HCC group
Procedure: as §1
In one embodiment, a tissue homogenizer 120 is coupled to the treatment unit 110 for preparing ten percentage homogenates of liver tissue. […]
FIG. 7 illustrates effect on lipid peroxidation (LPO) in control and experimental groups in accordance with an embodiment of the present disclosure. All values are expressed as mean±Standard deviation (SD) (n=6) except n=5 in Plant ‘c’ group. […]
Malondialdehyde (MDA), an end product of LPO is assessed in the tumor tissues homogenates. […]

[4] = tested on: DEN induced hepatocellular carcinoma; assay: Liver histopathology (H and E stained sections) in DEN + CCl4 induced HCC rats; details: 16 weeks
Procedure: as §1, §2
In one embodiment, a micropipette 122 is coupled to the treatment unit 110 for pouring formalin solution for histopathological examination. […]

With `CNC(=O)c1cc(Oc2ccc(NC(=O)Nc3ccc(Cl)c(C(F)(F)F)c3)cc2)ccn1` [STD, Sorafenib] the “number of macroscopically visible hepatic nodules” value [1] was 0-1, the “A/G ratio, change compared to HCC group” value [2] was “very highly significant (^aP<0.0001) increased” and the “level of albumin, change compared to HCC group” value [2] was “very highly significant (^aP<0.0001) increased”. The “level of globulin, change compared to HCC group” value [2] was “very highly significant (^aP<0.0001) increased”, the “level of total bilirubin, change compared to HCC group” value [2] was “very highly significantly (^aP<0.0001) decreased” and the “level of total protein, change compared to HCC group” value [2] was “very highly significant (^aP<0.0001) increased”. For the same compound, the “levels of MDA (lipid peroxidation), change compared to HCC group” value [3] was “very highly significant (^aP<0.0001) decreased” and the “histopathology of H and E stained section of liver (40×)” value [4] was “hepatic tissue with cytoplasm, less necrosis of cell, altered hepatocytes and hepatocellular architecture”.
